Measurements from ChEMBL document CHEMBL1201862, “PubChem BioAssay data set” (2004).
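Step 1: Grow cells in 96-well plates. Step 2: Expose to compound for 48 hours at 5 concentrations. Step 3: Interpolate endpoints linearly; if unreached, use highest concentration. GI50: concentration for 50% inhibition of growth.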 Calls of active or inactive are those of the source. No stated cut-off is given here; in the data, active = GI50 up to about 1.1 µM and inactive = higher.

Tests used:
Experiment in all cases: growth of human tumour cells (NCI), 48 h
SNB-75 = system: SNB-75
LOX IMVI = system: LOX IMVI
PC-3 = system: PC-3
A549 = system: A549
HCC 2998 = system: HCC 2998
RXF 393 = system: RXF 393
RPMI-8226 = system: RPMI-8226
SNB-19 = system: SNB-19
SF-539 = system: SF-539
KM12 = system: KM12
OVCAR-4 = system: OVCAR-4
COLO 205 = system: COLO 205
HOP-92 = system: HOP-92
OVCAR-5 = system: OVCAR-5
NCI-H23 = system: NCI-H23
SF-268 = system: SF-268
HCT-15 = system: HCT-15
SK-MEL-2 = system: SK-MEL-2
MCF7 = system: MCF7
SW-620 = system: SW-620

Compound | GI50 (SNB-75) | GI50 (LOX IMVI) | GI50 (PC-3) | GI50 (A549) | GI50 (HCC 2998) | GI50 (RXF 393) | GI50 (RPMI-8226) | GI50 (SNB-19) | GI50 (SF-539) | GI50 (KM12) | GI50 (OVCAR-4) | GI50 (COLO 205) | GI50 (HOP-92) | GI50 (OVCAR-5) | GI50 (NCI-H23) | GI50 (SF-268) | GI50 (HCT-15) [µM] | GI50 (SK-MEL-2) | GI50 (MCF7) | GI50 (SW-620)
O=S(=O)([N-]c1nc2ccccc2nc1-[n+]1ccccc1)c1ccccc1 | > 100 µM (inactive) | > 100 µM (inactive) | > 100 µM (inactive) | > 100 µM (inactive) | > 100 µM (inactive) | > 100 µM (inactive) | 74 µM (inactive) | > 100 µM (inactive) | > 100 µM (inactive) | > 100 µM (inactive) | > 100 µM (inactive) | > 100 µM (inactive) | > 100 µM (inactive) | > 100 µM (inactive) | 67.8 µM (inactive) | > 100 µM (inactive) | > 100 | > 100 µM (inactive) | > 100 µM (inactive) | 
C[C@H]1CCC/C=C/[C@@H]2C[C@H](OC3OC(CO)C(O)C(O)C3O)C[C@H]2[C@H](O)/C=C/C(=O)O1 (stereo not given in full) | 35 µM (inactive) | 36.1 µM (inactive) | 64.6 µM (inactive) | 88.7 µM (inactive) | 29.7 µM (inactive) | 19 µM (inactive) | 53.8 µM (inactive) | > 100 µM (inactive) | 32.1 µM (inactive) | 31.3 µM (inactive) | 78.5 µM (inactive) | 17.2 µM (inactive) | > 100 µM (inactive) | 37.3 µM (inactive) | 53.1 µM (inactive) | 72.8 µM (inactive) | 72.3 | 49.5 µM (inactive) | 62.4 µM (inactive) | 35.9 µM (inactive)
O=c1ccn(CC2(CO)CCC2)c(=O)[nH]1 | > 100 µM (inactive) | > 100 µM (inactive) | > 100 µM (inactive) | > 100 µM (inactive) | > 100 µM (inactive) | > 100 µM (inactive) | > 100 µM (inactive) |  | > 100 µM (inactive) | > 100 µM (inactive) | > 100 µM (inactive) | > 100 µM (inactive) | > 100 µM (inactive) | > 100 µM (inactive) | > 100 µM (inactive) | > 100 µM (inactive) | > 100 | > 100 µM (inactive) | > 100 µM (inactive) | > 100 µM (inactive)
Cn1c(-c2cccc([N+](=O)[O-])c2)[n+](C)c2ccccc21 | > 100 µM (inactive) | > 100 µM (inactive) | 46.8 µM (inactive) | 46.9 µM (inactive) | > 100 µM (inactive) | > 100 µM (inactive) | > 100 µM (inactive) | > 100 µM (inactive) | > 100 µM (inactive) | > 100 µM (inactive) | > 100 µM (inactive) | 17.7 µM (inactive) | > 100 µM (inactive) | > 100 µM (inactive) | 25.7 µM (inactive) | 87.7 µM (inactive) | > 100 | > 100 µM (inactive) | > 100 µM (inactive) | > 100 µM (inactive)
Cc1ccc(-c2cc(-c3ccc(Cl)cc3)nc(/N=C3\C(=O)N(CN4CCOCC4)c4ccc(Cl)cc43)n2)cc1 | 29.9 µM (inactive) | 31.8 µM (inactive) | 30 µM (inactive) | 27.2 µM (inactive) | 19.1 µM (inactive) | 13.8 µM (inactive) | 0.0139 µM (active) | 34.8 µM (inactive) | 23 µM (inactive) | 22.2 µM (inactive) | 29.3 µM (inactive) | 20.2 µM (inactive) | 17.9 µM (inactive) | 26.4 µM (inactive) | 19.6 µM (inactive) | 22.6 µM (inactive) | 23.2 | 20.1 µM (inactive) | 17.5 µM (inactive) | 6.49 µM (inactive)
CCC1NC(=O)C1NC(=O)OC (stereo not given) | > 100 µM (inactive) | > 100 µM (inactive) | > 100 µM (inactive) |  | > 100 µM (inactive) | > 100 µM (inactive) | > 100 µM (inactive) | > 100 µM (inactive) | > 100 µM (inactive) | > 100 µM (inactive) | > 100 µM (inactive) | > 100 µM (inactive) | > 100 µM (inactive) | > 100 µM (inactive) | > 100 µM (inactive) |  | > 100 | > 100 µM (inactive) | > 100 µM (inactive) | > 100 µM (inactive)
Cc1cc(OP2(=O)NCc3ccncc3O2)ccc1Cl (stereo not given) | > 100 µM (inactive) | > 100 µM (inactive) | > 100 µM (inactive) | > 100 µM (inactive) | > 100 µM (inactive) | > 100 µM (inactive) | > 100 µM (inactive) | > 100 µM (inactive) | > 100 µM (inactive) | > 100 µM (inactive) | > 100 µM (inactive) | > 100 µM (inactive) | > 100 µM (inactive) | > 100 µM (inactive) | > 100 µM (inactive) |  | > 100 | > 100 µM (inactive) | > 100 µM (inactive) | > 100 µM (inactive)
